Data reported in ChEMBL document CHEMBL1201862, “PubChem BioAssay data set” (2004).
Calls of active or inactive are those of the source.

Key:
[1] = growth suppression of PTEN-null colon cells, dose response, cell-based, HCT116 PTEN knockout (AID 1047); format: functional;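 also: HCT116 colon tumor cells with PTEN knocked out; cells exposed to compound for 60 hours before readout; potency for loss of cell viability measured by luminescence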
[2] = target: Peroxisome proliferator-activated receptor gamma/Nuclear receptor coactivator 3 (Homo sapiens, UniProt P37231); format: functional;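 also: agonist potency for raising coactivator recruitment to the receptor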
Cytochrome P450 2C9 = Cytochrome P450 2C9 (Homo sapiens, UniProt P11712)
Chain of Cytochrome P450 2C9 (P11712 whole entry): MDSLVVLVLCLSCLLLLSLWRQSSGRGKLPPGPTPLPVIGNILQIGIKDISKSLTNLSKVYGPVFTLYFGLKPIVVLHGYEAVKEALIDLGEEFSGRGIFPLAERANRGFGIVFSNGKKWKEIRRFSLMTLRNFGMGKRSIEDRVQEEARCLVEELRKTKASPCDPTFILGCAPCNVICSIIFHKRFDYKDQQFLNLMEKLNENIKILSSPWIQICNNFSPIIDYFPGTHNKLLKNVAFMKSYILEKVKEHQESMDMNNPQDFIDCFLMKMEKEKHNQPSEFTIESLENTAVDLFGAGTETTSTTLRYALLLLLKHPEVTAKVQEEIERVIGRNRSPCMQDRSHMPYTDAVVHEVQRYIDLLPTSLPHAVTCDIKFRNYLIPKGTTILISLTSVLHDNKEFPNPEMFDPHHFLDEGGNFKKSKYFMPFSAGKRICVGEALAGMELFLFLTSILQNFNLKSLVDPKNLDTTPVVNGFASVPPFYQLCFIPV

[3] = growth suppression of beta-catenin-knockout colon cells, dose response, cell-based, HCT116, human colon tumor (AID 1045); format: functional;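 also: HCT116 colon tumor cells with beta catenin knocked out; cells exposed to compound for 60 hours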
Cytochrome P450 1A2 = target: T1, Cytochrome P450 1A2 (Homo sapiens, UniProt P05177);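 also: PubChem cytochrome P450 panel assay, CYP1A2 panel member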
T1 sequence (P05177 whole entry): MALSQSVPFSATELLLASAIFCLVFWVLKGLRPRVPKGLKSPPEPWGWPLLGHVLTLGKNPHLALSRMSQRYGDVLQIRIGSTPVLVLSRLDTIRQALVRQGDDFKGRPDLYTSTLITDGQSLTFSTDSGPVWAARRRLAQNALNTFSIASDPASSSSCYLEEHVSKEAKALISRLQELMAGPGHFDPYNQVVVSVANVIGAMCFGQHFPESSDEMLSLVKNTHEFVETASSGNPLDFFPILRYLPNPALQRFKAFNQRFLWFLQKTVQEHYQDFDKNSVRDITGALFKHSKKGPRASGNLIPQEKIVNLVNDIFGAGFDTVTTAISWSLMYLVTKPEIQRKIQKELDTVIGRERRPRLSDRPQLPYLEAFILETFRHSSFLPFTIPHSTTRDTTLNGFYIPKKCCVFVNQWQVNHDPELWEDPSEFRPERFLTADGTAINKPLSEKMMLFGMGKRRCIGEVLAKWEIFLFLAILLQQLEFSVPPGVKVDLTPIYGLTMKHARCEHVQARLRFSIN

[4] = target: Peroxisome proliferator-activated receptor gamma/Nuclear receptor coactivator 2 (Homo sapiens, UniProt P37231); format: functional;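 also: agonist potency for raising coactivator recruitment to the receptor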
Chain of Peroxisome proliferator-activated receptor gamma/Nuclear receptor coactivator 2 (P37231 whole entry): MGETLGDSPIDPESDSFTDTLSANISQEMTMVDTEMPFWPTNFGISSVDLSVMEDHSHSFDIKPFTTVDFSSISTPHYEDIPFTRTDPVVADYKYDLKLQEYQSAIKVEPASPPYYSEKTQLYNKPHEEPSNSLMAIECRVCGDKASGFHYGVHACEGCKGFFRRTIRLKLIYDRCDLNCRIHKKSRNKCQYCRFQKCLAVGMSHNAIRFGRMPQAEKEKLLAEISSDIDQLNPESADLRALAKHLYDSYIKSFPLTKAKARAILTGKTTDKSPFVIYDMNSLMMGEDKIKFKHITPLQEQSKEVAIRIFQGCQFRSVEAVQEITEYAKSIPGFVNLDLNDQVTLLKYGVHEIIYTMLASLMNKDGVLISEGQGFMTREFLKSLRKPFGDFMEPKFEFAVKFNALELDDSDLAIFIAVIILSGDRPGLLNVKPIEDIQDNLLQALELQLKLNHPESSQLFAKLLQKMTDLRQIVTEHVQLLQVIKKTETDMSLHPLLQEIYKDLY
Chain of Peroxisome proliferator-activated receptor gamma/Nuclear receptor coactivator 2 (Q15596 whole entry, further chain): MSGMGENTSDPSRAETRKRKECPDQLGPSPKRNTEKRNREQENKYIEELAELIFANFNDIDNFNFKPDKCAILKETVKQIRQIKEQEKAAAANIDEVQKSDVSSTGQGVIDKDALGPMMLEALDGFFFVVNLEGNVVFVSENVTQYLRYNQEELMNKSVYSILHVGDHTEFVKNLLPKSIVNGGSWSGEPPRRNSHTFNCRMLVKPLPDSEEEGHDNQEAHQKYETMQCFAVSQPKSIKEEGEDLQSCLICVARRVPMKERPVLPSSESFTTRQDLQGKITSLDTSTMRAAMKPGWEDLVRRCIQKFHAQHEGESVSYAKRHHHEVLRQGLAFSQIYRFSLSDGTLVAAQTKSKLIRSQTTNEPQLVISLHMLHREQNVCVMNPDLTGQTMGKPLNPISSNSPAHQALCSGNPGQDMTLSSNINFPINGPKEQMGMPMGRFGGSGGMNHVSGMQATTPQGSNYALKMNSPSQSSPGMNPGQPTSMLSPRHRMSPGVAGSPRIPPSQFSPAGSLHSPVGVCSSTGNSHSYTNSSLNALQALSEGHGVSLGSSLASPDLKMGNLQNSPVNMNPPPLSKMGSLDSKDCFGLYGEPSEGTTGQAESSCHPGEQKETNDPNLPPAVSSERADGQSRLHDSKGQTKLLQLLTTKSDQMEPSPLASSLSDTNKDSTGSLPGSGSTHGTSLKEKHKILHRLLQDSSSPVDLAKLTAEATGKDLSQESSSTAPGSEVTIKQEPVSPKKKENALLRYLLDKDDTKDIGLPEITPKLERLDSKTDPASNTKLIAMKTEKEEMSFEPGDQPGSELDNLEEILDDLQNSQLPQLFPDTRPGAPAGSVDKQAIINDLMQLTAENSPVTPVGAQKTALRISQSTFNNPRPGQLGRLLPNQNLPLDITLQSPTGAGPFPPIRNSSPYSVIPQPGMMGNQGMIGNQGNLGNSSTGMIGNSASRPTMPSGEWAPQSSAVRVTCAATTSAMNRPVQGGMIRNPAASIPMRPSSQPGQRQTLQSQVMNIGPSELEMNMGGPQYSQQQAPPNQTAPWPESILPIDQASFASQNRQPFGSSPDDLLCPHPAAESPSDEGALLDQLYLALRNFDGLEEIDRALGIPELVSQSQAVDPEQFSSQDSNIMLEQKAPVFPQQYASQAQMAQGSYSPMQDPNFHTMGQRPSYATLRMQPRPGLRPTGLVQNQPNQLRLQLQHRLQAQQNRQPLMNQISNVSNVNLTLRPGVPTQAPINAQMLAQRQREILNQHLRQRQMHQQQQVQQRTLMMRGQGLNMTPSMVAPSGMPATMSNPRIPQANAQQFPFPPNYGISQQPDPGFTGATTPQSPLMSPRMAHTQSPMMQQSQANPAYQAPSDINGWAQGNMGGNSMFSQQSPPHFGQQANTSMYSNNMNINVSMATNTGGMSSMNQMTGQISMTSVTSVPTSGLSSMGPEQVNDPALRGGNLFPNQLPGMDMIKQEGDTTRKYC

[5] = target: Peroxisome proliferator-activated receptor gamma/Nuclear receptor coactivator 1 (Homo sapiens, UniProt P37231); format: functional;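 also: agonist potency as compounds enhance coactivator SRC-1 recruitment to PPARgamma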
[6] = Luminescence Cell-Based Dose Confirmation HTS to Identify Inhibitors of Platelet Dense Granule Release. [Related pubchem assays: 1663 (Primary HTS), 1678 (Summary of Project)]; format: functional
HEK293 = test: inhibitors of LMP1-driven NF-kB reporter, dose response, cell-based, HEK293, luciferase, cherry-pick (AID 588343); format: functional; conditions: Homo sapiens
BJ [7] = test: cytotoxicity toward BJ-TERT fibroblasts, dose response, cell-based, RAS-independent, luminescence (AID 1933); format: functional; conditions: Homo sapiens
BJ [8] = test: cytotoxicity toward BJ-TERT-LT-ST fibroblasts, dose response, cell-based, RAS-independent, luminescence (AID 1935); format: functional; conditions: Homo sapiens;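 also: BJ fibroblasts immortalized with TERT plus LT and ST oncogenes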
[9] = target: Luciferin 4-monooxygenase (Photinus pyralis, UniProt P08659); test: firefly luciferase enzyme inhibitors, dose response, biochemical, luminescence (AID 1891)
Chain of Luciferin 4-monooxygenase (P08659 whole entry): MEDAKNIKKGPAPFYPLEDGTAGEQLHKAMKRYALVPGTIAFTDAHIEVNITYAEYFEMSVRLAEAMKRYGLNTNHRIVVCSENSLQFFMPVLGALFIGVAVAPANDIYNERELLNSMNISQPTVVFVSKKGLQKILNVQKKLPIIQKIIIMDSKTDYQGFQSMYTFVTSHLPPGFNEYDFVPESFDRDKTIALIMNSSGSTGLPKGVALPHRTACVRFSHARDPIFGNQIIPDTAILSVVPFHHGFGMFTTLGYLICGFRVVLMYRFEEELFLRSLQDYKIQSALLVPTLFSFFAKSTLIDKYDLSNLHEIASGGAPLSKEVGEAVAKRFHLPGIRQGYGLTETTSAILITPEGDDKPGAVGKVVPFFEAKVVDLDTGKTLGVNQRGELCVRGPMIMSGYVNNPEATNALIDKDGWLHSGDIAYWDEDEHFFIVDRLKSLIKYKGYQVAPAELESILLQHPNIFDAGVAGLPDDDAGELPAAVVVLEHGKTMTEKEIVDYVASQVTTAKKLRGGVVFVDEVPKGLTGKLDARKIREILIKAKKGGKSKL

[10] = cytotoxicity toward DRD oncogenic fibroblasts, dose response, cell-based, non-viral oncogenic, luminescence (AID 1934); format: functional; conditions: Homo sapiens
BJ [11] = test: cells; format: functional, cell-based; conditions: Homo sapiens
[12] = insulin promoter down-regulators in MIN6 cells, imaging, high-content screening, mouse beta cells (AID 1628); format: functional
[13] = cytotoxicity in MIN6 insulinoma cells, dose response, cytotoxicity control, cell-based, mouse insulinoma (AID 2122); format: functional;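 also: confirmatory high-throughput counterscreen run to flag cytotoxic compounds; mouse MIN-6 beta cells carrying an insulin promoter eGFP reporter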
[14] = cytotoxicity toward NIH3T3 fibroblasts, dose response, counter-screen, cell-based, ATP luminescence, mouse fibroblasts (AID 2010); format: functional;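 also: cells exposed to compound for about 90 hours before reading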
Genome polyprotein = Genome polyprotein (dengue virus type 2, UniProt P29990); test: Dengue-2 NS5 methyltransferase inhibitors, primary screen, biochemical, confirmation dose response (AID 588689); format: functional
Chain of Genome polyprotein (P29990 2492-3391 limits assumed): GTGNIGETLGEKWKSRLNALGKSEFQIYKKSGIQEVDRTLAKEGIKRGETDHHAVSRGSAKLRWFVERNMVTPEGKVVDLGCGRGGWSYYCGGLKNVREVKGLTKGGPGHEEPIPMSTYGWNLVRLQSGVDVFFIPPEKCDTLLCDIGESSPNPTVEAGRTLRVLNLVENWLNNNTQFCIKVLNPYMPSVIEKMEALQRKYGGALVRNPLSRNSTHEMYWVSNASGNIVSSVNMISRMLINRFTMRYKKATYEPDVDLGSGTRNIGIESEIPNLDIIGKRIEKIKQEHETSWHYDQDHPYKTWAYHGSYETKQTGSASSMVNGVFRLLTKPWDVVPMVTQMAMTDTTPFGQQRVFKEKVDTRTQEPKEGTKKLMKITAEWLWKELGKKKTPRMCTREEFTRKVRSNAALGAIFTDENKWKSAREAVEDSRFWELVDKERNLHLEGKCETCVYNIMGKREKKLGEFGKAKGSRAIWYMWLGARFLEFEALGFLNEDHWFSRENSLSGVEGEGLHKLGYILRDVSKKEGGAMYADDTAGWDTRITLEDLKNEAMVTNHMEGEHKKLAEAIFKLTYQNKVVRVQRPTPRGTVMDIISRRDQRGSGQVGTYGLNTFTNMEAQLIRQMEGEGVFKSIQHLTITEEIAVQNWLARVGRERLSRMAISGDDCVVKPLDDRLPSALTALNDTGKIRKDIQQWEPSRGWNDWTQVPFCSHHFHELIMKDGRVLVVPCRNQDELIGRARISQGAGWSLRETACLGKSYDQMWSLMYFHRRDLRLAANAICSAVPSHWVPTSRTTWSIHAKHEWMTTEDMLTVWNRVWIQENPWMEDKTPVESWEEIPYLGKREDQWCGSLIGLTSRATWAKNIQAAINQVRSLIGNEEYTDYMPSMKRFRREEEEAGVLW

[15] = Luminescence Cell-Based Dose Response HTS to Identify Inhibitors of 5'UTR Stem-Loop Driven Prion Protein mRNA Translation in H4 Neuroglioblastoma Cells. [Related pubchem assays: 1827 (Project Summary), 1813 (Primary HTS)]; format: functional
[16] = inhibitors of intracellular T. cruzi replication, confirmation, NIH3T3 host cells, beta-gal luminescence (AID 2044); format: functional, cell-based;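 also: intracellular parasites grown in NIH/3T3 mouse fibroblasts as host cells; luminescent beta-galactosidase reporter signal from transgenic T. cruzi replicating inside host cells; inhibitors lower the luminescence signal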
[17] = inhibitors of firefly luciferase expression or activity, dose response, H4 neuroglioma cells, luminescence (AID 1990); format: functional, cell-based
Vero = Vero cell cytotoxicity, cytotoxicity control for flavivirus capping enzyme inhibitors (AID 588742); format: functional; conditions: Chlorocebus sabaeus
[18] = target: T2, Polyadenylate-binding protein 1 (Homo sapiens, UniProt P11940); test: PABP1 MLLE–PAM2 binding inhibitor potency, dose response, biochemical, fluorescence polarization, FITC-PAM2 peptide (AID 602259); format: functional; conditions: read-out: IC50_Mean
T2 sequence (P11940 whole entry): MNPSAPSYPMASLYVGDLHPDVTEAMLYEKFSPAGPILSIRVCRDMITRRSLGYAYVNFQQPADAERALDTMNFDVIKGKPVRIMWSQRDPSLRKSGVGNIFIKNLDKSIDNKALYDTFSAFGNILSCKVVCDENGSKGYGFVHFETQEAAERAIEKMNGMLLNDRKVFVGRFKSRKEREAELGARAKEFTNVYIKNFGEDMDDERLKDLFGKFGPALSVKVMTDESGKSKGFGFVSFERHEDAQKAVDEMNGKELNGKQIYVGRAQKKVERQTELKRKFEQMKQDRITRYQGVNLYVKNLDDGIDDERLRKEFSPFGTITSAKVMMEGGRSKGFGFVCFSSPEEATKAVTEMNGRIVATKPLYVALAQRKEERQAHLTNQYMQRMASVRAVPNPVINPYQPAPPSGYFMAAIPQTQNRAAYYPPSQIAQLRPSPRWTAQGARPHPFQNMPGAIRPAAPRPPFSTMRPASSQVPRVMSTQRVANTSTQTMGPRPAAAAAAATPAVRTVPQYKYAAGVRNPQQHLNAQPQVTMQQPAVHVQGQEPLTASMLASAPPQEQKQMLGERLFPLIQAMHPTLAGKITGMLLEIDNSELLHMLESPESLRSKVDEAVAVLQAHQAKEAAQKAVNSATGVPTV

[19] = target: T2, Polyadenylate-binding protein 1; test: PABP1 MLLE–PAM2 interaction inhibitors, dose response, miRNA deadenylation inhibitor project, biochemical, fluorescence polarization, Cy5-PAM2 peptide, secondary (AID 602260); format: functional; conditions: read-out: IC50_Mean
[20] = inhibitors of SNCA 5'UTR-driven reporter translation, confirmation, H4 neuroglioma cells, luminescence (AID 1988); format: functional, cell-based
[21] = tested on: Streptococcus sp. 'group A'; test: growth inhibition of control SK(-) GAS strain, dose response, counter-screen for streptokinase expression inhibitor project, luminescence, kanamycin, BacTiterGlo, confirmation (AID 1900); format: functional, organism-based
CAAX prenyl protease 2 = target: T3, CAAX prenyl protease 2 (Homo sapiens, UniProt Q9Y256); test: human Rce1 protease inhibitors, dose response, biochemical, yeast membranes, quenched-peptide fluorescence, cherry-pick (AID 588849)
T3 sequence (Q9Y256 whole entry): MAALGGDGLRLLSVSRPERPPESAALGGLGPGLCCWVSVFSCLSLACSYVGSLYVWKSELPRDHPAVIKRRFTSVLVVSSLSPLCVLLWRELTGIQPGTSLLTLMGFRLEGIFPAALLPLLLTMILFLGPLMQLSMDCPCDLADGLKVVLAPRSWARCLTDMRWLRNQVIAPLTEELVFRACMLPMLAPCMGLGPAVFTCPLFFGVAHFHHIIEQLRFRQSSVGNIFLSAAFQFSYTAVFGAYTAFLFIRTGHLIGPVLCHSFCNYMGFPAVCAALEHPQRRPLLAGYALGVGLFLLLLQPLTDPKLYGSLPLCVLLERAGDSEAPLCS

Streptococcus = test: Group A Streptococcus viability loss, dose response, counter-screen for streptokinase expression inhibitor project, luminescence, BacTiterGlo (AID 1915); format: functional, organism-based;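 also: potency for reduction of bacterial viability or growth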

With `CCOc1ccc(-c2nn(-c3ccccc3)cc2/C=C2\SC(N)=NC2=O)cc1C` the EC50 [1] was 8.6 µM (active), the EC50 [2] was > 79.4 µM (not active) and the AC50 (Cytochrome P450 2C9) was “inconclusive”. For the same compound, the EC50 [3] was 8.58 µM (active), the AC50 (Cytochrome P450 1A2) was 15.8 µM (inconclusive) and the EC50 [4] was > 79.4 µM (not active). For the same compound, the EC50 [5] was > 79.4 µM (not active).
With `CCOC(=O)c1c(C)c(C(=O)N2CCCCCC2)c(C)n1C` the AC50 (Cytochrome P450 2C9) was “inconclusive” and the AC50 (Cytochrome P450 1A2) was 25.1 µM (inconclusive).
With `Cn1c(/C=C/c2ccccc2)nc2ccccc21` the EC50 [6] was 1.89 µM (active), the AC50 (HEK293) was 3.81 µM (active) and the EC50 (BJ [7]) was 10.8 µM (active). The EC50 (BJ [8]) was 18.9 µM (active), the EC50 [9] was 1.09 µM (active) and the EC50 [10] was 8.49 µM (active). The EC50 (BJ [11]) was 7.95 µM (active).
With `Cc1ccccc1/N=C/C=C1\N(C)c2ccccc2C1(C)C` the IC50 [12] was 2.44 µM (active) and the IC50 [13] was 5.61 µM (active).
For `O=C1c2ccc3c4c(ccc(c24)C(=O)N1CCCCO)C(=O)N(CCCCO)C3=O`, the IC50 [12] was 2.96 µM (active), the IC50 [13] was 1.99 µM (active) and the EC50 [14] was 4.23 µM (active). For the same compound, the IC50 (Genome polyprotein) was > 100 µM (active), the EC50 [15] was 13.6 µM (active) and the EC50 [16] was 2.25 µM (active). The EC50 [17] was > 120 µM (not active), the CC50 (Vero) was 5.55 µM (active) and the IC50 [18] was 23.8 µM (inactive). The IC50 [19] was > 66 µM (inactive) and the EC50 [20] was 3.4 µM (active).
For `C[C@H]1COc2c(N3CCN(C)CC3)c(F)cc3c(=O)c(C(=O)O)cn1c23` [LEVOFLOXACIN], the EC50 [21] was 2.1 µM (active), the AC50 (CAAX prenyl protease 2) was 41 µM (active) and the EC50 (Streptococcus) was 0.911 µM (active).
